Reference: ChEMBL document CHEMBL1141821, “Bioactive sesquiterpenes from a Taiwanese marine sponge Parahigginsia sp” (J Nat Prod, 1999)
Values after ≈ are worked out from the molar mass of the structure shown.

How the values were obtained:
Type in all cases: functional, cell-based
[1] = Cytotoxicity against human KB16 cells after 3 days by MTT assay; details: KB16, 72 h
HT-29 = test: Cytotoxicity against human HT-29 cells after 6 days by MTT assay; details: HT-29, 144 h
P388 = test: Cytotoxicity against mouse P388 cells after 3 days by MTT assay; details: P388, 72 h
A549 = test: Cytotoxicity against human A549 cells after 6 days by MTT assay; details: A549, 144 h

SMILES	IC50 [1]	IC50 (HT-29)	IC50 (P388)	IC50 (A549)
CC(C)=CCC[C@H](C)c1ccc(C)cc1O	8.3 µg/mL (≈ 38 µM)	8.1 µg/mL (≈ 37.1 µM)	0.1 µg/mL (≈ 0.458 µM)	
COc1cc(C(=O)O)ccc1C(C)/C=C/C=C(C)C (stereo not drawn) [PARAHIGGINIC ACID]	4.8 µg/mL (≈ 18.4 µM)	6 µg/mL (≈ 23 µM)	1 µg/mL (≈ 3.84 µM)	3.9 µg/mL (≈ 15 µM)
Cc1ccc(C(C)CC(O)CC(C)C)c(O)c1 (stereo not drawn) [PARAHIGGINOL A]	> 50 µg/mL	> 50 µg/mL	> 50 µg/mL	> 50 µg/mL
CC(=O)OC(CC(C)C)CC(C)c1ccc(C=O)cc1O (stereo not drawn) [PARAHIGGINOL B]	4.9 µg/mL (≈ 16.8 µM)	3.5 µg/mL (≈ 12 µM)	3 µg/mL (≈ 10.3 µM)	10 µg/mL (≈ 34.2 µM)
CC(=O)OC(CC(C)C)CC(C)c1ccc(C)cc1O (stereo not drawn) [PARAHIGGINOL C]	3.9 µg/mL (≈ 14 µM)	2.6 µg/mL (≈ 9.34 µM)	2.5 µg/mL (≈ 8.98 µM)	2.8 µg/mL (≈ 10.1 µM)
CC(C)=C/C=C/C(C)c1ccc(C=O)c(O)c1O (stereo not drawn) [PARAHIGGINOL D]	7.2 µg/mL (≈ 29.2 µM)	3.3 µg/mL (≈ 13.4 µM)	2.9 µg/mL (≈ 11.8 µM)	3.8 µg/mL (≈ 15.4 µM)
